Patent US6916832B2, “Chromeno[4,3,2-de]isoquinolines as potent dopamine receptor ligands” (University of North Carolina at Chapel Hill, priority 1999, dated 2005)

Key:
D1 receptors [1] = molecular target: T1, D1 receptors (Rattus norvegicus, UniProt P18901); assay: cAMP production in rat striatum homogenate; type: biochemical; details: rat striatum / rat striatal membranes, relative to dopamine
T1 construct: Frozen rat striata was homogenized by seven manual strokes; from tissue; host or cells: rat striatum
T1 sequence (P18901 whole entry): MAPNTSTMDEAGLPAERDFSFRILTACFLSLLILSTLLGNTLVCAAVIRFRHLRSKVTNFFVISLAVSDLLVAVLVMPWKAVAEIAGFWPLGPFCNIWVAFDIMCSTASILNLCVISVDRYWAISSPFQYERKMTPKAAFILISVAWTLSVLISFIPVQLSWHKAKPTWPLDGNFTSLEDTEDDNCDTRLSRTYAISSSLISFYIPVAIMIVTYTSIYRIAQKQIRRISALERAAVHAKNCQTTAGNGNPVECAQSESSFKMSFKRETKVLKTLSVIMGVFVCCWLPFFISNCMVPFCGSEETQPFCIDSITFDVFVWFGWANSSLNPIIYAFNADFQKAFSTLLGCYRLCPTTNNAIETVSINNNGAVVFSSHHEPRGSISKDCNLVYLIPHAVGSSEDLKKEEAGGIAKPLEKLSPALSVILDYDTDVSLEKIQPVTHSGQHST
Procedure: Frozen striatal tissue (ca. 40 mg) was homogenized in 4 ml of buffer (5 mM Hepes, 2 mM EGTA, pH 7.5) using 10 strokes in a Wheaton Teflon-glass homogenizer. Four ml of 50 mM Hepes with 2 mM EGTA buffer (pH 7.5) was added, and the tissue was homogenized by an additional 3 strokes. A 20 μl aliquot of this tissue homogenate was added to a prepared reaction. The reaction mixture consisted of 100 mM Hepes (pH 7.4), 100 mM NaCl, 4 mM MgCl2, 2 mM EDTA, 500 μM isobutyl methylxanthine (IBMX), 0.01% ascorbic acid, 10 μM pargyline, 2 mM ATP, 5 μM GTP, 20 mM phosphocreatine, 5 units of creatine phosphokinase (CPK), and selected concentrations of DA. The final reaction volume was 100 μl. Basal cAMP activity was determined by incubation of tissue in the reaction mixture with no drug added. Tubes were assayed in duplicate. After a 15 min incubation at 30° C., the reaction was stopped with the addition of 500 μl of 0.1 N HCl. Tubes were vortexed briefly, and then spun in a BHG Hermle Z 230 M microcentrifuge for five min at 15,000×g to eliminate large particles. The concentration of cAMP in each sample was determined with an RIA of acetylated cAMP, modified from that previously described (Harper and Brooker, 1975). Iodination of cAMP was performed using a method described previously (Patel and Linden, 1988). Assay buffer was 50 mM sodium acetate buffer with 0.1% sodium azide (pH 4.75). Standard curves of cAMP were prepared in buffer at concentrations of 2 to 500 fmoles/assay tube. To improve assay sensitivity, all samples and standards were acetylated with 10 μl of a 2:1 solution of triethylamine:acetic anhydride. Samples were assayed in duplicate. Each assay tube contained 100 μl of diluted sample, 100 μl of primary antibody (sheep, anti-cAMP, 1:100,000 dilution with 1% BSA in buffer) and 100 μl of [^125I]-cAMP (50,000 dpm/100 μl of buffer); total assay volume was 300 μl. Tubes were vortexed and stored at 4° C. overnight (approx. 18 hr). Antibody-bound radioactivity was then separated by the addition of 25 μL of BioMag rabbit, anti-goat IgG (Advanced Magnetics, Cambridge Mass.), followed by vortexing and further incubation at 4° C. for 1 hr. To these samples 1 ml of 12% polyethylene glycol/50 mM sodium acetate buffer (pH 6.75) was added and all tubes were centrifuged at 1700×g for 10 min. Supernatants were aspirated and radioactivity in the resulting pellet was determined using an LKB Wallac gamma counter (Gaithersburg, Md.). Data were calculated for each sample, and expressed initially as pmol/mg/min cAMP. […] Normalized dose-response curves were analyzed by nonlinear regression using an algorithm for sigmoid curves in the curvefitting program InPlot (Graphpad, Inc.; San Francisco, Calif.). […]

D1 receptors [2] = molecular target: T2, D1 receptors (Macaca mulatta, UniProt O77680); assay: cAMP production in C-6-mD1 cells (cloned expressed primate D1A receptors); type: cell-based; details: C-6-mD1 cells / cloned expressed primate D1A receptors, relative to dopamine
T2 construct: expressed in transfected cells; host or cells: C-6 glioma cells (C-6-mD1)
T2 sequence (O77680 whole entry): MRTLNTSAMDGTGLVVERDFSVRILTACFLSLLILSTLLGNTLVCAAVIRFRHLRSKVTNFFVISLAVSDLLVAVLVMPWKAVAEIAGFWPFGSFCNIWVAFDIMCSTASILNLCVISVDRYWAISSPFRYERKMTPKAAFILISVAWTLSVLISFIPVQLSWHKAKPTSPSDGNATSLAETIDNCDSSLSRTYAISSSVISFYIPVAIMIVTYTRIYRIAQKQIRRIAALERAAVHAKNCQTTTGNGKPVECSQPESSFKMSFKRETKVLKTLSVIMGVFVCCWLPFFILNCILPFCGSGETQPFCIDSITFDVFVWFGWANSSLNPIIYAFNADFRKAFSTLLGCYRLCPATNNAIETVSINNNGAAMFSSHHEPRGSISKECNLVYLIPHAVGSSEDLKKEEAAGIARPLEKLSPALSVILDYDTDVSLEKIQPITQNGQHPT
Procedure: Radioreceptor and function studies were also conducted for cloned human or monkey receptors transfected into one of several cell lines [e.g., C-6 glioma or Chinese hamster ovary (CHO) cells]. Cells were grown in appropriate medium, and at confluency, harvested for membrane preparation. Flasks of cells in the same passage were scraped using a rubber policeman and collected in 50 ml centrifuge tubes. These were spun for 10 min at 1200×g, to pellet whole cells. The supernatant was discarded and then five ml of PBS (phosphate buffered saline)/flask was added to the centrifuge tubes to resuspend the cells. The tubes were then centrifuged again for […] at 28,500×g. The PBS was removed and the pellet suspended in a solution of 10% DMSO in PBS. Cells were homogenized with a polytron for 10 seconds on setting 5. One ml aliquots were stored at −80° C. until use in receptor binding studies. Aliquots contained approximately 1 mg/ml of protein, as measured using the BCA protein assay reagent (Pierce, Rockford, Ill.). Agonist intrinsic activity was assessed by the ability of selected compounds to stimulate adenylate cyclase, as measured by cAMP formation in whole cells. In C-6 cells, for example, the dose response curve for each drug was fit using a sigmoid function to determine maximal effective concentration (top plateau of curve) as well as EC50s. All drugs were run in the same assay in order to decrease variability across cell passages. Confluent plates of cells were incubated with drugs dissolved in DMEM-H plain media supplemented with 20 mM Hepes, 0.01% ascorbic acid and 500 μM iso-butyl-methyl xanthine (IBMX; pH 7.2; media A). The final volume for each well was 500 μl. In addition to the dose response curves run for each drug, basal levels of cAMP and isoproterenol-stimulated (through endogenous β2 receptors, positive control) cAMP levels were evaluated for each plate. Each condition was run in duplicate wells. Following a 10 min incubation at 37° C., cells were rinsed briefly with media, and the reaction stopped with the addition of 500 μl 0.1 N HCl. Cells were then allowed to chill for 5-10 min at 4° C., the wells were scraped and the volume placed into 1.7 ml centrifuge tubes. An additional 1 ml of 0.1 N HCl was added to each tube, for a final volume of 1.5 ml/tube. Tubes were vortexed briefly, and then spun in a BHG Hermle Z 230 M microcentrifuge for five min at 15,000×g to eliminate large cellular particles. Cyclic AMP levels for each sample were determined as described above. Data were calculated for each sample, and expressed initially as pmol/mg/min cAMP. […] Normalized dose-response curves were analyzed by nonlinear regression using an algorithm for sigmoid curves in the curvefitting program InPlot (Graphpad, Inc.; San Francisco, Calif.). […]

D2-like receptors = assay: Functional selectivity at D2-like receptors in rats (in vivo or in vitro); parameters: species or system rat
[3] = tested on: MPTP-treated monkey model; details: cited from earlier work
cloned human D4 receptor = molecular target: T3, cloned human D4 receptor (Homo sapiens, UniProt P21917); assay: Radioreceptor binding, cloned human D4 receptor; details: read-out: K0.5 at the cloned human D4 receptor
T3 construct: expressed in transfected cells; host or cells: not specified (e.g. C-6 glioma or CHO cells)
T3 sequence (P21917 1-419): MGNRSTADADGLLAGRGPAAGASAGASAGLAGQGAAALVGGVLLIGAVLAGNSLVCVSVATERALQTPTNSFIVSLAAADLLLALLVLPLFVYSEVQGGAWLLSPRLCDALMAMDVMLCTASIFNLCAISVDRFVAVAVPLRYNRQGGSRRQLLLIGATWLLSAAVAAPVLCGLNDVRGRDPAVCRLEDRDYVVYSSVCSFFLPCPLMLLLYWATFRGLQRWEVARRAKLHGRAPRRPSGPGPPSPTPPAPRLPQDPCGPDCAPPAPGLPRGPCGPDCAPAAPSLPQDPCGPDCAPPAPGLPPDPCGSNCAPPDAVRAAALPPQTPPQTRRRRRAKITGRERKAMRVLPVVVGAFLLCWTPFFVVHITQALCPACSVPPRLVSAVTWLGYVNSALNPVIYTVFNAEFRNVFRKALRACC
Procedure: Cells were grown in appropriate medium, and at confluency, harvested for membrane preparation. Flasks of cells in the same passage were scraped using a rubber policeman and collected in 50 ml centrifuge tubes. These were spun for 10 min at 1200×g, to pellet whole cells. The supernatant was discarded and then five ml of PBS (phosphate buffered saline)/flask was added to the centrifuge tubes to resuspend the cells. The tubes were then centrifuged again for min at 28,500×g. The PBS was removed and the pellet suspended in a solution of 10% DMSO in PBS. Cells were homogenized with a polytron for 10 seconds on setting 5. One ml aliquots were stored at −80° C. until use in receptor binding studies. Aliquots contained approximately 1 mg/ml of protein, as measured using the BCA protein assay reagent (Pierce, Rockford, Ill.). […]

D1 and D2 receptors = assay: D1:D2 selectivity from receptor binding
Procedure: Frozen rat striata was homogenized by seven manual strokes in a Wheaton Teflon-glass homogenizer in 8 ml ice cold 50 mM HEPES buffer with 4.0 mM MgCl2, (pH 7.4). The tissue was centrifuged at 27,000×g for 10 min, the supernatant was discarded, and the pellet was homogenized (5 strokes) and resuspended in ice cold buffer and centrifuged again. The final pellet was suspended at a concentration of approximately 2.0 mg wet weight/ml. The amount of tissue added to each assay tube was 1.0 mg, in a final assay volume of 1.0 ml. D1 receptors were labeled with [^3H] SCH23390 (0.30 nM). D2 receptors were labeled with [^3H] spiperone (0.07 nM); unlabeled ketanserin (50 nM) was added to mask binding to 5HT2 sites. Total binding was defined as radioligand bound in the absence of any competing drug. Nonspecific binding was estimated by adding unlabeled SCH23390 (1 μM) or unlabeled chlorpromazine ([…]) for D1 and D2 receptor binding assays, respectively. Triplicate determinations were made for each drug concentration in each assay. Assay tubes were incubated at 37° C. for 15 minutes. Binding was terminated by filtering with ice cold buffer on a Skatron 12 well cell harvester (Skatron, Inc., Sterling, Va.) using glass fiber filter mats (Skatron no. 7034). […] After shaking for 30 minutes, radioactivity was determined on a LKB Wallac 1219 RackBeta liquid scintillation counter (Wallac, Gaithersburg, Md.). […]

D1 receptor = D1 receptor (Homo sapiens, UniProt P21728); details: preparations with decreased receptor reserve; cited from earlier work
Chain of D1 receptor (P21728 whole entry): as the sequence (O77680 whole entry) above, with I311N counted along it

| Structure (SMILES) | agonist intrinsic activity at D1 receptors (D1 receptors [1]) | agonist intrinsic activity at D1 receptors (D1 receptors [2]) | antiparkinsonian effects [3] | other results |
| --- | --- | --- | --- | --- |
| Oc1cc2c(cc1O)[C@H]1c3ccccc3CN[C@@H]1CC2 (racemic) [dihydrexidine, (±)-trans-10,11-dihydroxy-5,6,6a,7,8,12b-hexahydrobenzo[a]phenanthridine] | full agonist | full agonist | exceptional antiparkinsonian effects | activity at D2-like receptors located post-synaptically (D2-like receptors): agonist; activity at D2-like receptors located pre-synaptically (D2-like receptors): antagonist |
| Oc1ccc2c(c1O)Cc1cccc3c1C2CNC3 (racemic) [dinapsoline, (±)-8,9-dihydroxy-2,3,7,11b-tetrahydro-1H-naphtho[1,2,3-de]isoquinoline, reference compound] |  |  |  | Ki (cloned human D4 receptor): > 1000 nM; D1:D2 selectivity (D1 and D2 receptors): five-fold |
| Oc1cc2c(cc1O)C(c1ccccc1)CNCC2 (single isomer, unassigned; (+)) [(+)-SKF 38393, reference compound] | partial agonist | partial agonist |  |  |
| NC[C@@H]1O[C@H](C23CC4CC(CC(C4)C2)C3)Cc2c1ccc(O)c2O [Example A-77636] |  |  | exceptional antiparkinsonian effects |  |
| C=CCN1CCc2c(cc(O)c(O)c2Cl)C(c2ccccc2)C1 (centres unmarked) [SKF82958] |  |  |  | intrinsic efficacy at D1 receptor (D1 receptor): not to have full intrinsic efficacy |
